Consider two compounds from patent publication US10596168B2, “Antagonists of the thyroid-stimulating hormone receptor (TSHR)” (Forschungsverbund Berlin e.V., priority 2016, dated 2020).

Several values for one entry are separate records, joined by “and”; a condition that tells them apart may be missing. Equal values may be shown once.

What all share (assay type): cell-based
Data set [1] has as its target T1, TSHR (Homo sapiens, UniProt P16473).
T1 construct: expressed in transfected cells
As to the kind of experiment: cAMP accumulation radioimmunoassay (RIA), inhibition of TSH-induced cAMP production in HEK-293 cells stably expressing TSHR. The arrangement: antagonistic activity (% inhibition): concentration or dose not given beside the values. The note with it: for Antagonistic effect (cAMP inhibition) on TSHR: 50 μM together with the respective agonist, RIA, HEK-293; for Mode of antagonism vs. TSH (Schild analysis): bTSH dose response with increasing antagonist concentrations, wt TSHR; for antagonistic activity (% inhibition): inhibiting cAMP stimulation by TSH, radioimmunoassay; for IC50: secondary screen (RIA), dose-dependent inhibition of cAMP production caused by TSH (EC80 value), HEK-293-TSHR. The protocol: (§1) HEK-293 cells stably expressing TSHR, FSHR, LHGCR or CRF1R were cultured for 48 h and stimulated for 1 h at 37° C. with stimulation buffer (DMEM supplemented with 10 mM HEPES, 0.5% BSA, 0.25 mM 3-isobutyl-1-methylxanthine) containing the ligands as indicated. After stimulation medium was aspirated and reactions were stopped by lysis of the cells with 0.1% trifluoroacetic acid, 0.005% Triton X-100 for 30 min at 4° C. Supernatants were collected and heated at 95° C. for 10 min, dried in a rotation vacuum concentrator (Alpha-RCV, Christ) and finally stored at −20° C. until use. After reconstitution and acetylation of the samples (Jäschke et al. 2006), the cAMP content was determined using cAMP-^125I-tyrosyl methyl ester (10,000 cpm, IBL) and polyclonal rabbit anti cAMP antibodies. The radioactivity of the precipitate was determined in a γ-counter.
For the Secondary Screening cAMP accumulation was measured by radioimmunoassay (RIA) in HEK-293-TSHR cells as described before.
For the secondary screening we used a very sensitive in vitro technique, the radioimmunoassay. This assay was established and performed in HEK-293 cell line stably expressing TSHR.
Therefore RIA was used to measure the cAMP accumulation upon stimulation with TSH (EC80 value) and confirmed the desired effect for S4 and S9 with a clear decrease of cAMP production.
On the technique in general: Cyclic AMP is a second messenger, typically raised through Gs and lowered through Gi signalling.

Another data set addresses T2, wt TSHR (Homo sapiens, UniProt P16473).
T2 construct: expressed in transfected cells
As to the kind of experiment: cAMP stimulation by agonist compound C2 at wildtype TSHR with increasing antagonist concentrations. The note with it: C2 dose response with increasing antagonist concentrations. The protocol:
as §1
Moreover, a Schild plot analysis provided first interesting hints that S37 might compete with the binding site of TSH, since increasing concentrations of added S37 led to a right shift of the TSH dose response curve (FIG. 5A) and to a linear Schild plot (FIG. 5B). S37 seems not to compete with the transmembrane binding site of the previous reported agonist compound 2 (Neumann et al. 2009), since increasing concentrations of added S37 led to diminished maximal values of the dose response curve for compound 2 by unchanged EC50 value (FIG. 5C).

The subject of data set [2] is Hek293 cell line stably expressing TSHR. As to the kind of experiment: Toxicity test, alamar blue cell vitality. As to conditions: 10 μM-100 μM. The method, then: The vitality of the cells was measured by the alamar blue test using Hek293 cell line stably expressing TSHR. Untreated cells and DMSO-treated cells (0.2% DMSO) were used as control.
Therefore, we conclude that substance S37 is not toxic for the concentration range evaluated by this assay.
For orientation: Resazurin is reduced to fluorescent resorufin, in cell work by metabolically active cells.

Another data set concerns the target T3, Δ1-408-TSHR (Homo sapiens, UniProt P16473).
T3 construct: This short construct (Δ1-408-TSHR.GFP) only consists of the transmembrane region; expressed in transfected cells
The experiment in a line: cAMP radioimmunoassay at ectodomain-truncated TSHR construct stimulated by compound 2. The note with it: Δ1-408-TSHR lacking the ectodomain. From the text: Ectodomain-truncated TSHR construct (Δ1-408-TSHR.GFP) was generated using quick change site-directed mutagenesis and restriction digestion to excise the desired fragment of the TSHR sequence. The DNA sequence encoding the truncated TSHR mutant was inserted into the GFP-N1 vector. The construct was fused C-terminally with GFP and N-terminally with a FLAG tag. The FLAG tag was inserted by overlap-extension PCR. A HEK-293 cell line stably expressing this construct was generated. Shortly, cells were transfected with Polyethylenimine and plasmid DNA in a 2:1 ratio in serum free medium (DMEM). Cells were selected with medium containing 400 μg/ml G418 for several weeks and then a polyclonal population was selected for GFP fluorescence in a cell sorting device (BD FACSAria II flow cytometer). Cell surface expression was confirmed by confocal laser-scanning microscopy (GFP fluorescence) and flow cytometry using anti-FLAG M2 (Sigma).
HEK-293 cells stably expressing TSHR, FSHR, LHGCR or CRF1R were cultured for 48 h and stimulated for 1 h at 37° C. with stimulation buffer (DMEM supplemented with 10 mM HEPES, 0.5% BSA, 0.25 mM 3-isobutyl-1-methylxanthine) containing the ligands as indicated. […] After reconstitution and acetylation of the samples (Jäschke et al. 2006), the cAMP content was determined using cAMP-^125I-tyrosyl methyl ester (10,000 cpm, IBL) and polyclonal rabbit anti cAMP antibodies. […]

A further data set concerns the target T4, FSHR (Homo sapiens, UniProt P23945).
T4 construct: expressed in transfected cells
T4 sequence (P23945 18-695): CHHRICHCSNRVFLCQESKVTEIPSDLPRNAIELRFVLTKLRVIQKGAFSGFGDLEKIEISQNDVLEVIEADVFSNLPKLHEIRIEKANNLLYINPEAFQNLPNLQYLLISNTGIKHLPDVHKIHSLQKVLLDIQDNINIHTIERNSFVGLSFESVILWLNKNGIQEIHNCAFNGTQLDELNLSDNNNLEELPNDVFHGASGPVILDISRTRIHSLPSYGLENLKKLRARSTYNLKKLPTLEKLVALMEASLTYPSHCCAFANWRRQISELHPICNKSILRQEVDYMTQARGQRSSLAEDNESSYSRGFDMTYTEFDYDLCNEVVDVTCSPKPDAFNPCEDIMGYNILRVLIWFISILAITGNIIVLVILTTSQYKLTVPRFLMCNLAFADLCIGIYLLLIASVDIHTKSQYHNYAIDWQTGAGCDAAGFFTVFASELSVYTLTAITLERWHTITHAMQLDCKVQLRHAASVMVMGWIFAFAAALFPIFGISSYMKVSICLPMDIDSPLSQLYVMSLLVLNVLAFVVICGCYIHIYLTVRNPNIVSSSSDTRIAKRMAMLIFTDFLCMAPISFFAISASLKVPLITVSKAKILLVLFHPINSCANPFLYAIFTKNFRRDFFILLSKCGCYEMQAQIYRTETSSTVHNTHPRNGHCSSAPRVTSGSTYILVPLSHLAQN
The experiment in a line: Selectivity test: cAMP RIA in HEK-293 cells stably expressing FSHR. The note with it: 50 μM together with the respective agonist. The protocol: as §1
(§2) The antagonistic activity of compounds S4, S9, S37 and as reference compound, the micromolar inverse agonist 2-7 (Neumann et al. 2010) were tested on homologous members of the glycoprotein hormone receptor family, FSHR and LHCGR. […] All receptors were stably expressed in HEK-293 cells and the impact of each substance was measured upon administration of 50 μM together with the respective agonist. cAMP accumulation was quantified by RIA. The antagonistic potential of each compound was calculated. […]

Another data set addresses T5, LHCGR (Homo sapiens, UniProt P22888).
T5 construct: expressed in transfected cells
The experiment in a line: Selectivity test: cAMP RIA in HEK-293 cells stably expressing LHCGR. The note with it: 50 μM together with the respective agonist. The method, then: as §1, §2

The target of data set [3] is T1, TSHR. As to the kind of experiment: Primary screening, Enzyme Fragment Complementation (EFC) cAMP assay in CHO-K1-TSHR cells. As to conditions: 50 μM; after hit validation and exclusion of false positives. The protocol: Primary screening was performed using an Enzyme Fragment Complementation (EFC) technology. CHO-K1-TSHR cells (15000/well in a 384 well plate) were treated with 50 μM of each of the 16544 compounds of the ChemBioNet compound library of the Leibniz-Institut fuer Molekulare Pharmakologie (FMP), Berlin, Germany. EFC technology uses two fragments of one enzyme: an enzyme acceptor (EA) and an enzyme donor (ED). ED is labeled to (synthetic) cAMP. […] In this assay, free cAMP from cell lysates and ED-labeled cAMP compete for antibody binding sites. Unbound ED-cAMP is free to complement EA to form active enzyme, which subsequently produces a luminescent signal. Thus the luminescence signal increases with rising level of intracellular cAMP. All assay components were used after the manufacturer's protocol.
Hits were validated by dose-response curves using the EFC assay.
False-positive hits could be excluded by stimulating CHO-K1 cells without TSHR with Forskolin (23.4 μM) followed by addition of the compound of interest. Forskolin activates the Adenylyl-cyclase directly. Inhibition of this effect excludes the interaction between TSHR and compound.
For the implementation of the primary screen the Enzymes Fragment Complementation Technology (EFC) was selected.

T1 sequence (P16473 21-764): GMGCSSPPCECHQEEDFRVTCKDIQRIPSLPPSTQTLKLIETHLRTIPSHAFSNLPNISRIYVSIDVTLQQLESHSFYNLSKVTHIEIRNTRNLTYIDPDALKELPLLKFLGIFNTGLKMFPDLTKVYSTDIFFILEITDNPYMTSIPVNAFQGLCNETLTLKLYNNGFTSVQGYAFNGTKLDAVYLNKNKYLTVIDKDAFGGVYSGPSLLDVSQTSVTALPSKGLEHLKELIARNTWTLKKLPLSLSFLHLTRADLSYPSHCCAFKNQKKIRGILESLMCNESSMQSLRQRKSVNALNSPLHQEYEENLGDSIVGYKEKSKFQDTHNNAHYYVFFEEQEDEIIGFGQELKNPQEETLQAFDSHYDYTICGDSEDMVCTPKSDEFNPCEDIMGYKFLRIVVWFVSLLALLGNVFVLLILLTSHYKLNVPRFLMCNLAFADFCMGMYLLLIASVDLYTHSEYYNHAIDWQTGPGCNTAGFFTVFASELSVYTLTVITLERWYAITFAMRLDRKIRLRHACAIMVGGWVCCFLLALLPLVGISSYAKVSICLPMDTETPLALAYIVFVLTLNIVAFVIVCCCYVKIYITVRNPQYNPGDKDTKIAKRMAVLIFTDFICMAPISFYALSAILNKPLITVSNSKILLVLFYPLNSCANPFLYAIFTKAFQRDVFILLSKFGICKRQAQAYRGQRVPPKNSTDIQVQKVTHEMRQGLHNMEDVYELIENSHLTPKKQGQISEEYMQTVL
T2 sequence (P16473 21-764): as above
T5 sequence (P22888 27-699, species assumed): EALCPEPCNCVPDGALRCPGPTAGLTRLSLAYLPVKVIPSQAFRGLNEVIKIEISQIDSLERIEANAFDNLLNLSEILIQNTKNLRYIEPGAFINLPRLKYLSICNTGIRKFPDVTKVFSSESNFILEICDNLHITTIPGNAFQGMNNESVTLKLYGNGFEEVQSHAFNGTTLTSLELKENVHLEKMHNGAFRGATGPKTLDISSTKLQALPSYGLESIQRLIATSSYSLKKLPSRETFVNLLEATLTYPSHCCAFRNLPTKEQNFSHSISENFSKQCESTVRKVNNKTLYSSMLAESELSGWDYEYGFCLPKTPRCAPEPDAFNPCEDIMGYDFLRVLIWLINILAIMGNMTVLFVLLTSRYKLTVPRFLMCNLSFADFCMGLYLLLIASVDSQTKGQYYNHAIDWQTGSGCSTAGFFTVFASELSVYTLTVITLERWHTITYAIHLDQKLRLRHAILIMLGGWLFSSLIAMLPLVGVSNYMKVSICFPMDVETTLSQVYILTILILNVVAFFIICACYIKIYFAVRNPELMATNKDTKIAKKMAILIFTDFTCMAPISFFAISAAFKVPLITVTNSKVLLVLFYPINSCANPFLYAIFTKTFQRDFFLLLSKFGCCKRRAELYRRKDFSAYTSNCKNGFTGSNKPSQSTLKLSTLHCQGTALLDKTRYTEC
T3 sequence (P16473 409-764, stated change not applied): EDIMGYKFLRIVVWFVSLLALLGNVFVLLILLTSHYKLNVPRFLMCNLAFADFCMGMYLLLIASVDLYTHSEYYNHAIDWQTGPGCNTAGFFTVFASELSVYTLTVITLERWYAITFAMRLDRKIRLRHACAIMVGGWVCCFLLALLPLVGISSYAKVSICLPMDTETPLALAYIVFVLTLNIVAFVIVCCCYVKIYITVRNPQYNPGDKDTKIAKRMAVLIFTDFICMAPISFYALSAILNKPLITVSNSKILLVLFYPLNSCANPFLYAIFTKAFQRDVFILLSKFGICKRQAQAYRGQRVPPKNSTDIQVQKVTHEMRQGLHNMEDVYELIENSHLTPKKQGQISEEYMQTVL

In general, IC50 refers to the point on the concentration scale where inhibition reaches its midpoint. On to `O=C1[C@@H]2[C@H]3C[C@H]([C@@H]4Sc5[nH]c(=O)sc5[C@@H](c5ccccc5)[C@H]34)[C@@H]2C(=O)N1c1ccccc1` (racemic) [Compound S37, (4aS,5S,5aR,8aR,9R,9aS,10R)-7,10-diphenyl-3,4a,5,5a,8a,9,9a,10-octahydro-5,9-methanothiazolo[5′,4′:5,6]thiopyrano[2,3-f]isoindole-2,6,8(7H)-trione], for which, at TSHR [1], the “Antagonistic effect (cAMP inhibition) on TSHR” value is reported as “inhibits TSHR comparable to the reference compound 2-7(NIH)”, the “Mode of antagonism vs. TSH (Schild analysis)” value was “competitive antagonism”, the “antagonistic activity (% inhibition)” value worked out at 70% and the IC50 turned out to be 28 µM. For the same compound, the “TSHR selectivity versus homologous receptors LHCGR and FSHR” value at TSHR [1] (from cAMP inhibition at TSHR, FSHR, LHCGR at 50 μM) was “highly TSHR-selective”. Besides, the “Mode of antagonism vs. C2” value on wt TSHR was “non-competitive antagonism”. In data set [2], the “Toxicity (cell vitality, alamar blue)” value was “not toxic”. On Δ1-408-TSHR, the “Mode of antagonism vs. C2 at truncated construct” value is listed as “non-competitive antagonism”.

`O=C1C2C3C=CC(C3)C2C(=O)N1c1ccc(N2CCN(c3cccc(C(F)(F)F)c3)CC2)c([N+](=O)[O-])c1` (stereo not shown) [Compound S9]: on TSHR [1], the “Antagonistic effect (cAMP inhibition) on TSHR” value is “unspecifically inhibits all three receptors”; the “Mode of antagonism vs. TSH (Schild analysis)” value is on record as “non-competitive antagonism”; the “antagonistic activity (% inhibition)” value is given as 75%; the IC50 is 18.7 µM and 18.6 µM. Also, the “Antagonistic effect (cAMP inhibition) on FSHR” value at FSHR is “unspecifically inhibits all three receptors”. For the same compound, at wt TSHR, the “Mode of antagonism vs. C2” value is recorded as “non-competitive antagonism”. In addition, the “Antagonistic effect (cAMP inhibition) on LHCGR” value on LHCGR is reported as “unspecifically inhibits all three receptors”. Also, the “Primary screen hit: cAMP production induced by thyrotropin” value at TSHR [3] is reported as “potentially abolishing cAMP production”.
